Reference: patent EP0928291B1, “3-MERCAPTOACETYLAMINO-1,5-SUBSTITUTED-2-OXO-AZEPAN DERIVATIVES USEFUL AS INHIBITORS OF MATRIX METALLOPROTEINASE” (Aventis Pharmaceuticals Inc., priority 1996, dated 1998)

Columns and labels:
Type in all cases: biochemical
[1] = target: T1, MMP-12 (macrophage metalloelastase) (Homo sapiens, UniProt P39900); assay: Determination of the inhibition constant (Ki) for MMP-12, fluorogenic substrate assay (cuvette or microtiter plate); conditions: substrate Mca-Pro-Leu-Gly-Leu-Dpa-Ala-Arg-NH2, 25C, pH 7.6, [MMP-12] = 2 nM, cuvette or microtiter plate method
T1 construct: made in house
T1 sequence (P39900 106-263 limits assumed): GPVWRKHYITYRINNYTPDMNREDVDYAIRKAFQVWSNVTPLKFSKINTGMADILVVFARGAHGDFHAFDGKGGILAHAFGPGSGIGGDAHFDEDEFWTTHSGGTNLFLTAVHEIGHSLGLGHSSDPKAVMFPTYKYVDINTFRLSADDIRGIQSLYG
Protocol: MMP-12 (EC 3.4.24.65) was cloned, expressed and purified according to Shapiro, S.D. et al., J Biol. Chem. 268, 23824-23829 (1993). […] Aliquots of MMP-12 were stored at -70C.
The potency of inhibitors of MMP-12 was measured using either quartz cuvettes or microtiter plates. The activity of MMP-12 was measured using a fluorogenic substrate, Mca-Pro-Leu-Gly-Leu-Dpa-Ala-Arg-NH2, Knight, C.G. et al., FEBS Lett. 296,263-266 (1992), at 25C in an assay buffer containing 50 mM Tris, pH 7.6, 0.2 M NaCl, 50 mM CaCl2, and 0.02% Brij-35. The increase in fluorescence due to cleavage of Gly-Leu peptide bond by MMP-12 was monitored with a Perkin-Elmer LS50B Fluorimeter (λex 328 nm, λem 393 nm, excitation slit 2.5, emission slit 10) for the cuvette assay and with a Molecular Devices Fmax fluorescence plate reader (λex 320 nm, λem 405 nm) for the microtiter plate assay. Substrate and inhibitor stock solutions were made in N,N,dimethylformamide (DMF) and 0.1% HCI-DMF, respectively. […]
Ki values were determined using the microtiter plate method in a manner similar to that described for the cuvette method with some modifications. […] Cleavage of substrate was recorded every 30 seconds for 30 minutes and progress curves were generated. […]

MMP-2 = target: T2, MMP-2 (Homo sapiens, UniProt P08253); assay: Determination of Inhibition Constant (Ki) for MMP-2, fluorogenic substrate assay; conditions: recombinant MMP-2, substrate Mca-Pro-Leu-Gly-Leu-Dpa-Ala-Arg-NH2, 37°C, pH 7.6, [S] = 1 µM, [MMP-2] = 0.4 nM
T2 construct: made in house; host or cells: Pichia pastoris (strains KM71 / SMD1168, clone 24S)
T2 sequence (P08253 110-660): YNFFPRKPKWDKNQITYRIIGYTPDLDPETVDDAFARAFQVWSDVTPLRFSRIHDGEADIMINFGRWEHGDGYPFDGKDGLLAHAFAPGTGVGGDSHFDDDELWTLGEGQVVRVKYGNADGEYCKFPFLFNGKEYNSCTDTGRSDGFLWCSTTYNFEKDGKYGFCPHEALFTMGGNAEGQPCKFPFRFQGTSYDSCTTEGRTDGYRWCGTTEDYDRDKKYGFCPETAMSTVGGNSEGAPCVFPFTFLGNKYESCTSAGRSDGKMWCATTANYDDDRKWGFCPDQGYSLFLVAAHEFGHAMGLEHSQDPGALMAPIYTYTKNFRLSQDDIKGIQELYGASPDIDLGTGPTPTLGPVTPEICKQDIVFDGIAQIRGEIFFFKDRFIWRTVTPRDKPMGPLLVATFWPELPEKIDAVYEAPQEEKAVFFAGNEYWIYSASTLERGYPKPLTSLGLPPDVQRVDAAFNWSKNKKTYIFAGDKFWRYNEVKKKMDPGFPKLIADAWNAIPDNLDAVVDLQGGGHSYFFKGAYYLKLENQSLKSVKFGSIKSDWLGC
Source text: Recombinant MMP-2 was purified from the fermentation broth of yeast Pichia pastoris that carries the integrated MMP-2 gene into its chromosome. In brief, the full-length cDNA for MMP-2 was obtained by reverse transcription of RNA from human melanoma A375M cell line by the reverse transcriptase polymerase chain reaction (RT-PCR) using sequence specific oligonucleotides. The nucleotide sequence was confirmed by Taq cycle sequencing. The cDNA was ligated into the Pichia pastoris expression vector pHIL-D2 in such a way that the expression of pro-MMP2 is under the control of the methano inducible alcohol oxidase promoter. The expression construct was digested with either SalI or NsiI and used to transform the Pichia pastoris strains KM71 and SMD1168. […]
The active MMP-2 was obtained by activation of proMMP-2 at 37°C for 1 h with 4-aminophenylmercuric acetate which was then removed by a Sephadex G-50 spin column. […] The increase in fluorescence is monitored (λex 328 nm, λem 393 nm). […] Under these conditions, the measured Ki, app is close to true Ki.
(§1) The Ki for a competitive inhibitor is calculated using: v0/vi = (1 + [I]/Ki, app) and Ki = Ki, app/(1 + [S]/Km), where v0 is the initial rate in the absence of inhibitor, vi is the initial rate in the presence of inhibitor at the concentration of [I], [S] is the substrate concentration, and Km is the Michaelis constant. […]

MMP-3 = target: T3, MMP-3 (Homo sapiens, UniProt P08254); assay: Determination of Inhibition Constant (Ki) for MMP-3, fluorogenic substrate assay; conditions: activated MMP-3, substrate Mca-Pro-Leu-Gly-Leu-Dpa-Ala-Arg-NH2, 37°C, pH 7.6, [S] = 1 µM, [MMP-3] = 1 nM
T3 construct: The active MMP-3 was obtained by treatment of proMMP-3 with trypsin; endogenous in cells; host or cells: human rheumatoid synovial fibroblasts stimulated with macrophage-conditioned medium (secreted proenzyme purified from the culture medium)
T3 sequence (P08254 100-477): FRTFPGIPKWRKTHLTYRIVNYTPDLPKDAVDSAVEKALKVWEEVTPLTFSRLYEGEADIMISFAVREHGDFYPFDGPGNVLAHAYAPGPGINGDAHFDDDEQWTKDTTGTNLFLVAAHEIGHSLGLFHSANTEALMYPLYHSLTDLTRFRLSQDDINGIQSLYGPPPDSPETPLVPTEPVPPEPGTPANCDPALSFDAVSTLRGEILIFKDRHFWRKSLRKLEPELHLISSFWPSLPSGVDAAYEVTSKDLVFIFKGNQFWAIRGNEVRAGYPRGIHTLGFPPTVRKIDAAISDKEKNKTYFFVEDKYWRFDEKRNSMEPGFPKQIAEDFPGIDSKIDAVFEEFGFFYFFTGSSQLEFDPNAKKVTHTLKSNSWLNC
Protocol: ProMMP-3 (EC 3.4.24.17; Stromelysin-1) was purified from culture medium of human rheumatoid synovial fibroblasts stimulated with macrophage-conditioned medium according to Okada, Y. et al., J. Biol. Chem. 261, 14245-14255 (1986). The active MMP-3 was obtained by treatment of proMMP-3 with trypsin (5 µg/mL) at 37°C for 30 min, followed by addition of soybean trypsin inhibitor (50 µg/mL). Aliquots of the activated MMP-3 were stored at -20°C.
The activated MMP-3 is assayed using a fluorogenic substrate, Mca-Pro-Leu-Gly-Leu-Dpa-Ala-Arg-NH2, Knight, C.G. et al., FEBS Lett. 296, 263-266 (1992), at 37°C in an assay buffer containing 50 mM Tris, pH 7.6, 0.2 M NaCI, 50 mM CaCl2, and 0.02% Brij-35. The increase in fluorescence due to cleavage of Gly-Leu peptide bond by MMP-3 was monitored with Perkin-Elmer LS50B Fluorimeter (λex 328 nm, λem 393 nm, excitation slit 2.5, emission slit 10). Substrate and inhibitor stock solutions were made in DMF and 0.1% HCl-DMF, respectively. […] Under these conditions, the measured Ki, app is close to true Ki.
as §1

Ki [1] [nM]	Ki (MMP-2) [nM]	Ki (MMP-3) [nM]	SMILES
18	1.2	39	CNC(=O)C(Cc1ccccc1)N1CCC(c2ccccc2)CC(NC(=O)C(S)CCCCN2C(=O)c3ccccc3C2=O)C1=O (stereo not drawn) [Compound II-1, 2H-Isoindole-2-hexanamide, N-[hexahydro-1-[2-(methylamino)-2-oxo-1-(phenylmethyl)ethyl]-2-oxo-5-phenyl-1H-azepin-3-yl]-1,3-dihydro-α-mercapto-1,3-dioxo-, [3S-(1(R*), 3α, 5α]]-]
53	–	73	CNC(=O)C(Cc1ccccc1)N1CCC(c2ccccc2)CC(NC(=O)C(S)CCCCN2C(=O)c3ccccc3C2=O)C1=O (stereo not drawn) [Compound III-1, 2H-Isoindole-2-hexanamide, N-[hexahydro-1-[2-(methylamino)-2-oxo-1-(phenylmethyl)ethyl]-2-oxo-5-phenyl-1H-azepin-3-yl]-1,3-dihydro-α-mercapto-1,3-dioxo-, [3S-[1(R*), 3α, 5β]]-]
